In US20130079312A1, “Method of Treating Hair Loss Due to Systemic Chemotherapy” (ELORAC, LTD., priority 2011, published 2013) one finds hair loss data, which are given here for two compounds.

The test can be described thus: Topical vasoconstrictor formulation applied to hair-bearing areas of patients receiving cancer chemotherapy; hair loss. The format is in vivo.

Consider `Cc1cc(C(C)(C)C)c(O)c(C)c1CC1=NCCN1` [Oxymetazoline, oxymetazoline], for which, under “Oxymetazoline 2.0% by weight in hydroethanolic foam, scalp and eyebrows, 60 minutes prior to intravenous nitrogen mustard, then three times daily for two week intervals”, the hair loss result is “prevention of major hair loss”. `c1ccc2c(CC3=NCCN3)cccc2c1` [naphazoline]: where the note is “scalp lotion containing 0.01% naphazoline, 30 minutes prior to and 15 minutes after each course of intravenous docetaxel, breast cancer patients”, the hair loss entry was “lose little, if any, of their hair”.
